The text below walks through data of US20220096461A1, “LIQUID ORAL DOSAGE FORMULATIONS OF METHYLNALTREXONE” (Bausch Health Ireland Limited, priority 2019, published 2022).

Data set [1] can be described thus: Partition coefficient between octanol and water (Log P). The class given is physicochemical. Particulars: n-octanol/water; ratios 9:1, 7:3, 1:1; HPLC. How it is done:
To determine the partition coefficient of each ion pair, about 15 mg of each ion pair was dissolved in separate 100 ml portions of n-octanol (previously saturated with water). Three n-octanol solutions were prepared for each ion pair. Mixtures having three different volumetric ratios of n-octanol to water (9:1, 7:3, and 1:1) were prepared by adding water and agitating the mixtures on a bench top agitator for two hours. After agitation, samples from each mixture were centrifuged for 10 min at 10,000 rpm to separate aqueous and n-octanol phase. The concentration of methylnaltrexone in the aqueous and n-octanol phases was determined by HPLC. Log P was calculated from the ratio of the drug concentration in n-octanol to the drug concentration in water.

In data set [2] the test system is opioid-induced constipation. Particulars: 12 mg subcutaneous injection; patients with chronic non-cancer pain; cited from earlier work.

In general, LogP refers to the decadic logarithm of the partition coefficient of the neutral form, usually between octanol and water. As for `CCCCC(CC)COC(=O)CC(C(=O)OCC(CC)CCCC)S(=O)(=O)[O-].C[N+]1(CC2CC2)CCC23c4c5ccc(O)c4OC2C(=O)CCC3(O)C1C5` (stereo not drawn) [Methylnaltrexone - Docusate], the LogP in data set [1] is recorded as 1.67. `C[N@+]1(CC2CC2)CC[C@]23c4c5ccc(O)c4O[C@H]2C(=O)CC[C@@]3(O)[C@H]1C5` [methylnaltrexone, (R)—N-methylnaltrexone]: in data set [2], the “Patients with three or more spontaneous bowel movements each week for four weeks” value is recorded as 59%. Turning to Methylnaltrexone - Lauryl Sulfate, in data set [1], the LogP is listed as 1.23.
